Consider 16 compounds from PubChem BioAssay AID200 (DTP/NCI, 2004).

Structures are written as SMILES. Values joined by “and” are separate entries in the source; they are usually repeats but may differ in a detail not shown here. Equal entries are not always repeated. Toxic doses and inconclusive results are not listed. Where a SMILES comes first, the peptide text is derived from it. The star is where a group is joined. Cbz = O=C(OCc1ccccc1)*; Bn = c1ccc(C*)cc1

For this test, the system named is B6C3F1 mice, B16 melanoma ip, median survival T/C. Put plainly: NCI In Vivo Anticancer Drug Screen. Data for tumor model B16 Melanoma (intraperitoneal) in B6C3F1 mice. Particulars: endpoint: median survival time, higher = longer survival. In short, it runs like this: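 Values are T/C ratios: the measurement in treated animals divided by that in vehicle-treated controls, using survival or tumor size in mice carrying transplantable tumors.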

The mark [1] stands for this setting: dose: 0.25 mg/kg/injection, schedule: Q01DX009 (ip), vehicle: water.
Where [2] appears, read: dose: 0.5 mg/kg/injection, schedule: Q01DX009 (ip), vehicle: water.
Setting [3] is: dose: 1.0 mg/kg/injection, schedule: Q01DX009 (ip), vehicle: water.
Setting [4] is: dose: 2.0 mg/kg/injection, schedule: Q01DX009 (ip), vehicle: water.
Where [5] appears, read: dose: 0.12 mg/kg/injection, schedule: Q01DX009 (ip), vehicle: saline + alcohol.
[6] abbreviates: dose: 0.25 mg/kg/injection, schedule: Q01DX009 (ip), vehicle: saline + alcohol.
The mark [7] stands for this setting: dose: 0.5 mg/kg/injection, schedule: Q01DX009 (ip), vehicle: saline + alcohol.
[8] abbreviates: dose: 1.0 mg/kg/injection, schedule: Q01DX009 (ip), vehicle: saline + alcohol.
Where [9] appears, read: dose: 2.0 mg/kg/injection, schedule: Q01DX009 (ip), vehicle: saline + alcohol.
[10] abbreviates: dose: 25.0 mg/kg/injection, schedule: Q01DX009 (ip), vehicle: saline with Tween-80.
Setting [11] is: dose: 50.0 mg/kg/injection, schedule: Q01DX009 (ip), vehicle: saline with Tween-80.
Setting [12] is: dose: 100.0 mg/kg/injection, schedule: Q01DX009 (ip), vehicle: saline with Tween-80.
Where [13] appears, read: dose: 200.0 mg/kg/injection, schedule: Q01DX009 (ip), vehicle: saline with Tween-80.
Setting [14] is: dose: 12.5 mg/kg/injection, schedule: Q01DX009 (ip), vehicle: saline with Tween-80.

Take `COc1cccc2c1C(=O)c1c(O)c3c(c(O)c1C2=O)C[C@@](O)(C(=O)CO)C[C@@H]3OC1CC(N)C(O)C(C)O1` (some centres undefined): the T/C by setting is: (dose: 0.12 mg/kg/injection, schedule: Q01DX009 (ip), vehicle: water) 166 % of control; (dose: 0.13 mg/kg/injection, schedule: Q01DX009 (ip), vehicle: water) 195 % of control; under setting [1], 188 % of control and 212 % of control and 252 % of control; (dose: 0.5 mg/kg/injection, schedule: Q01DX001 (ip), vehicle: saline) 152 % of control and 159 % of control; under setting [2], 226 % of control and 247 % of control and 285 % of control; (dose: 1.0 mg/kg/injection, schedule: Q01DX001 (ip), vehicle: saline) 165 % of control and 193 % of control. The T/C under setting [3] is 264 % of control and 285 % of control and 320 % of control; the T/C (dose: 2.0 mg/kg/injection, schedule: Q01DX001 (ip), vehicle: saline) is 151 % of control and 192 % of control and 244 % of control; the T/C (dose: 2.0 mg/kg/injection, schedule: Q01DX005 (ip), vehicle: saline) was 326 % of control; the T/C under setting [4] was 229 % of control and 278 % of control and 285 % of control; the T/C (dose: 4.0 mg/kg/injection, schedule: Q01DX001 (iv), vehicle: saline) is 109 % of control; the T/C (dose: 4.5 mg/kg/injection, schedule: Q01DX001 (ip), vehicle: saline) was 195 % of control. In addition, the T/C reads like this: (dose: 9.0 mg/kg/injection, schedule: Q01DX001 (ip), vehicle: saline) 174 % of control and 255 % of control; (dose: 18.0 mg/kg/injection, schedule: Q01DX001 (ip), vehicle: saline) 103 % of control; (dose: 10.0 micrograms/kg/injection, schedule: Q01DX005 (ip), vehicle: saline) 100 % of control; (dose: 10.0 micrograms/mouse/injection, schedule: Q01DX005 (ip), vehicle: saline) 220 % of control; (dose: 20.0 micrograms/kg/injection, schedule: Q01DX005 (ip), vehicle: saline) 116 % of control; (dose: 20.0 micrograms/mouse/injection, schedule: Q01DX005 (ip), vehicle: saline) 197 % of control. The T/C (dose: 40.0 micrograms/mouse/injection, schedule: Q01DX005 (ip), vehicle: saline) is 273 % of control.

As to `CCCC(NC)C(CC)CN` (centres undefined), the T/C is, setting by setting: (dose: 12.5 mg/kg/injection, schedule: Q01DX009 (ip), vehicle: saline) 93 % of control; (dose: 25.0 mg/kg/injection, schedule: Q01DX009 (ip), vehicle: saline) 100 % of control; (dose: 50.0 mg/kg/injection, schedule: Q01DX009 (ip), vehicle: saline) 110 % of control; (dose: 100.0 mg/kg/injection, schedule: Q01DX009 (ip), vehicle: saline) 105 % of control.

As for `COC(=O)C12OCC34C(CC5C(C)C6=CC(=O)OC6=CC5(C)C3C(O)C1O)OC(=O)C(OC(C)=O)C24` (centres undefined), the T/C under setting [5] is 110 % of control; the T/C under setting [6] is 109 % of control; the T/C under setting [7] is 105 % of control; the T/C under setting [8] was 103 % of control; the T/C under setting [9] was 109 % of control.

On to `COc1cc2oc3c(C)c(=O)cc4oc(-c5ccccc5)cc(c2c2c1CCC(c1ccccc1)O2)c43` (centres undefined), for which the T/C reads like this: (dose: 0.85 mg/kg/injection, schedule: Q01DX009 (ip), vehicle: Klucel (hydroxypropylcellulose) (HPC)) 105 % of control; (dose: 1.75 mg/kg/injection, schedule: Q01DX009 (ip), vehicle: Klucel (hydroxypropylcellulose) (HPC)) 101 % of control; (dose: 3.5 mg/kg/injection, schedule: Q01DX009 (ip), vehicle: Klucel (hydroxypropylcellulose) (HPC)) 103 % of control; (dose: 7.0 mg/kg/injection, schedule: Q01DX009 (ip), vehicle: Klucel (hydroxypropylcellulose) (HPC)) 95 % of control and 106 % of control; (dose: 14.0 mg/kg/injection, schedule: Q01DX009 (ip), vehicle: Klucel (hydroxypropylcellulose) (HPC)) 97 % of control and 104 % of control; (dose: 28.0 mg/kg/injection, schedule: Q01DX009 (ip), vehicle: Klucel (hydroxypropylcellulose) (HPC)) 121 % of control.

As for `Cc1cc(Br)c2nsnc2c1[N+](=O)[O-]`, the T/C runs as follows: under setting [10], 95 % of control; under setting [11], 95 % of control; under setting [12], 103 % of control; under setting [13], 90 % of control.

Consider `Cc1ccc(C(=O)NC2C(=O)NC(C(C)C)C(=O)N3CCCC3C(=O)N(C)CC(=O)N(C)C(C(C)C)C(=O)OC2C)c2c1Oc1c(c(C(=O)NC3C(=O)NC(C(C)C)C(=O)N4CCCC4C(=O)N(C)CC(=O)N(C)C(C(C)C)C(=O)OC3C)c3nc(-c4ccccc4)c(=O)oc3c1C)N2` (centres undefined), for which the T/C under setting [2] is 157 % of control.

For `COc1cccc2c1C(=O)c1c(O)c3c(c(O)c1C2=O)C[C@@](O)(C(=O)CO)C[C@@H]3OC1CC(N2CCOCC2C#N)C(O)C(C)O1` (some centres undefined), the T/C by setting is: (dose: 9.38 micrograms/kg/injection, schedule: Q01DX001 (ip), vehicle: water) 156 % of control; (dose: 18.75 micrograms/kg/injection, schedule: Q01DX001 (ip), vehicle: water) 153 % of control; (dose: 37.5 micrograms/kg/injection, schedule: Q01DX001 (ip), vehicle: water) 156 % of control.

On to `CN(N=O)C(=O)NCCCCCNC(=O)N(C)N=O`, for which the T/C was 98 % of control under setting [14], 100 % of control under setting [10], 109 % of control under setting [11] and 110 % of control under setting [12].

With `CC(=O)NCCSC(=O)C(=O)SCCNC(C)=O`, the T/C was 88 % of control under setting [11], 102 % of control under setting [12] and 87 % of control under setting [13].

Regarding `COc1ccc(OCC(O)CN2CCN(c3ccc(Cl)cc3)CC2)cc1` (centres undefined), the T/C under setting [14] was 122 % of control; the T/C under setting [10] was 122 % of control; the T/C under setting [11] was 87 % of control; the T/C under setting [12] was 89 % of control and 96 % of control.

For the compound `CCC(C)(OC(C)=O)C(=O)OC1C(=O)OC2CC3C(C)=CC(O)C(O)C3(C)C3C4(O)OCC23C1C(C)C4O` (centres undefined), the T/C is, setting by setting: under setting [6], 100 % of control; under setting [7], 115 % of control; under setting [8], 112 % of control; under setting [9], 109 % of control; (dose: 4.0 mg/kg/injection, schedule: Q01DX009 (ip), vehicle: saline + alcohol) 109 % of control.

Regarding `COc1ccc(-c2cc(=O)c3ccc4c(O)cccc4c3o2)cc1`, the T/C is, setting by setting: (dose: 3.12 mg/kg/injection, schedule: Q01DX009 (ip), vehicle: saline with Tween-80) 97 % of control; (dose: 6.25 mg/kg/injection, schedule: Q01DX009 (ip), vehicle: saline with Tween-80) 88 % of control; under setting [10], 86 % of control; under setting [11], 93 % of control.

Consider `CCC1=C[C@H]2CN(CCc3c([nH]c4ccccc34)[C@@](OC(C)=O)(c3cc4c(cc3OC)N(C)[C@H]3[C@@](O)(C(=O)NCCSc5ccccc5)[C@H](O)[C@]5(CC)C=CCN6CC[C@]43[C@@H]65)C2)C1`, for which the T/C by setting is: under setting [1], 107 % of control; under setting [3], 118 % of control; under setting [4], 124 % of control.

As to `CC(C)CC(NC(=O)C(CSCc1ccccc1)NC(=O)OCc1ccccc1)C(N)=O` (centres undefined) (Cbz-Cys(Bn)-Leu-NH2; configuration not given here), the T/C runs as follows: (dose: 12.5 mg/kg/injection, schedule: Q01DX009 (ip), vehicle: Klucel (hydroxypropylcellulose) (HPC)) 107 % of control; (dose: 25.0 mg/kg/injection, schedule: Q01DX009 (ip), vehicle: Klucel (hydroxypropylcellulose) (HPC)) 98 % of control; (dose: 50.0 mg/kg/injection, schedule: Q01DX009 (ip), vehicle: Klucel (hydroxypropylcellulose) (HPC)) 100 % of control.

In the case of `COC1=C(C)C(=O)C2=C(C1=O)C(CO)N1C(C#N)C3CC4C(C1C2N1CCOC41)N3C` (centres undefined), the T/C was 105 % of control (dose: 0.06 mg/kg/injection, schedule: Q01DX009 (ip), vehicle: acid diluted with saline); 98 % of control (dose: 0.12 mg/kg/injection, schedule: Q01DX009 (ip), vehicle: acid diluted with saline); 102 % of control under setting [5]; 111 % of control (dose: 0.25 mg/kg/injection, schedule: Q01DX009 (ip), vehicle: acid diluted with saline); 109 % of control and 104 % of control under setting [6]; 116 % of control and 103 % of control (dose: 0.5 mg/kg/injection, schedule: Q01DX009 (ip), vehicle: acid diluted with saline). The T/C was 112 % of control and 113 % of control and 118 % of control under setting [7]; 108 % of control and 113 % of control (dose: 1.0 mg/kg/injection, schedule: Q01DX009 (ip), vehicle: acid diluted with saline); 109 % of control and 121 % of control under setting [8].

Consider `CCCCS(=N)(=O)CC[C@H](N)C(=O)O` (some centres undefined), for which the T/C (dose: 445.0 mg/kg/injection, schedule: Q04HX012 (ip), vehicle: water) is 104 % of control and the T/C (dose: 890.0 mg/kg/injection, schedule: Q04HX012 (ip), vehicle: water) is 107 % of control.
